Assay results from patent US20090311685A1, “NMU-GHSR1b/NTSR1 oncogenic signaling pathway as a therapeutic target for lung cancer” (Oncotherapy Science, Inc, priority 2006, published 2009).

Assays:
GHSR1b/NTSR1 [1] = target: T1, GHSR1b/NTSR1 (Homo sapiens, UniProt P30989+Q92847, A200T); assay: Immunocytochemistry for internalized receptors, transfected COS-7 cells; assay type: cell-based; details: COS-7 cells with introduced receptors, 10 μM, time-dependent
T1 construct: expressed in transfected cells; host or cells: COS-7
T1 sequence (Q92847 1-289 isoform Q92847-2, stated change not applied): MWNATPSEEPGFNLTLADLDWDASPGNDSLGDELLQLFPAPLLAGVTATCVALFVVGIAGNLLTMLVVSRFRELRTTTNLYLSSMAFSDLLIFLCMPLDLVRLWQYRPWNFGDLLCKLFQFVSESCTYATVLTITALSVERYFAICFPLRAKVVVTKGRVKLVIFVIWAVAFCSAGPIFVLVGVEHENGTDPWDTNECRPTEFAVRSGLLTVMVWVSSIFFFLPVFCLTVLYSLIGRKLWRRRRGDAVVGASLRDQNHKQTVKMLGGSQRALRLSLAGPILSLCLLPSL
T1 sequence (P30989 whole entry A200T): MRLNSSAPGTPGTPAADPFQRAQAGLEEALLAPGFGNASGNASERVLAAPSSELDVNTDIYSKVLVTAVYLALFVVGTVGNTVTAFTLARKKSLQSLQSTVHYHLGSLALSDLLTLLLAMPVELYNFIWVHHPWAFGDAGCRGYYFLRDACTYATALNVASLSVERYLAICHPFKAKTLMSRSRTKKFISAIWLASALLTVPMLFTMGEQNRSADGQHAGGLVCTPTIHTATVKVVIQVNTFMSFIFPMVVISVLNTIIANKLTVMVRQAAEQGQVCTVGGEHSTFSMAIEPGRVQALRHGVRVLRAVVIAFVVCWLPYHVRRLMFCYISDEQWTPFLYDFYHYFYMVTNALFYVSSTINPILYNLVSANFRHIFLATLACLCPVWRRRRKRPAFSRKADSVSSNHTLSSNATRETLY
Protocol: To investigate the association of NMU-25 with its candidate receptors, GHSR1b and NTSR1, the following experiments were performed. The entire coding region of each of the receptor genes was amplified by RT-PCR using primers: […]
The products were digested with EcoRI and BamHI and cloned into appropriate sites of p3XFLAG-CMV10 vector (Sigma-Aldrich Co.). COS-7 cells were transfected with FLAG-tagged GHSR1b or NTSR1 expression plasmid using FuGENE 6 Transfection Reagent as described above. The cells subjected to internalization assays were exposed to NMU-25 (10 μM) for 120 min. The cells were then fixed with 4% paraformaldehyde solution for 15 min at 37° C., and washed with PBS(−). Specimens were incubated in PBS(−) containing 0.1% Triton X-100 for 10 min and subsequently washed with PBS(−). Prior to primary antibody reaction, the cells were incubated in CAS-BLOCK (ZYMED Laboratories Inc.) for 10 min to block non-specific antibody binding. Then, the cells were incubated with both rabbit polyclonal and anti-GHSR antibody and goat polyclonal anti-NTSR1 antibody. The antibodies were stained with both anti-rabbit secondary antibody conjugated to Alexa Fluor 488 (Molecular Probes) and anti-goat secondary antibody conjugated to Alexa Fluor 594 (Molecular Probes). […] Images were viewed and assessed using confocal microscopy (TCS SP2 AOBS; Leica Microsystems).

FOXM1 = assay: Induction of FOXM1 expression by NMU ligand-receptor signaling in LC319 cells; assay type: cell-based, human; details: 25 μM, vs BSA control
Protocol: Total RNA was extracted from cultured cells and clinical tissues using Trizol reagent (Life Technologies, Inc.) according to the manufacturer's protocol. Extracted RNAs and normal human tissue poly(A) RNAs were treated with DNaseI (Nippon Gene) and were reverse-transcribed using oligo(dT)20 primer and SuperSpcript II reverse transcriptase (Invitrogen). Semiquantitative RT-PCR experiments were carried out with the following synthesized gene-specific primers and beta-actin (ACTB)-specific primers as internal control: […]

COS-7 cells = assay: Autocrine assay: growth of cells cultured with NMU-25 (MTT, colony formation); assay type: cell-based; details: 0.3 to 15 μM, vs BSA control, 144 hours
Protocol: To confirm the autocrine function of NMU in the growth of mammalian cells, COS-7 cells were cultured in medium containing the active form of a 25-amino-acid polypeptide of NMU (NMU-25; Sigma-Aldrich Co.) at final concentrations of 0.3 to 15 μM. The same concentrations of BSA served as controls. The peptides/proteins were added every 48 hours for 6 days. At the 144-hours time point, cell proliferation was evaluated by MTT and colony-formation assays.

GHSR1b/NTSR1 [2] = target: T2, GHSR1b/NTSR1 (Homo sapiens, UniProt P30989+Q92847); assay: Immunocytochemistry for internalized receptors, endogenous receptors in LC319 cells; assay type: cell-based
T2 construct: endogenous in cells; host or cells: LC319
T2 sequence (Q92847 1-289 isoform Q92847-2): as the sequence (Q92847 1-289 isoform Q92847-2, stated change not applied) above
T2 sequence (P30989 whole entry): as the sequence (P30989 whole entry A200T) above, with T200A counted along it

[3] = target: T3, endogenous GHSR1b and NTSR1 on LC319 cells (Homo sapiens, UniProt P30989+Q92847); assay: Ligand-receptor binding assay with Cy5-labeled NMU-25; details: 10-fold excess unlabeled NMU-25
T3 construct: endogenous in cells; host or cells: LC319
T3 sequence (Q92847 1-289 isoform Q92847-2): as the sequence (Q92847 1-289 isoform Q92847-2, stated change not applied) above
T3 sequence (P30989 whole entry): as the sequence (P30989 whole entry A200T) above, with T200A counted along it
Protocol: (§1) To confirm the binding of NMU-25 to endogenous candidate receptors on the NSCLC cell, a receptor-ligand binding assay using LC319 and PC14 cells that express GHSR1b and NTSR1, but not NMU1R and NMU2R were performed. Specifically, trypsinized cells were seeded onto a 96-well (with black wall and clear bottom) microtiter plates 24 hours prior to the assay. The medium was removed and the cells were incubated with CyS-labeled NMU-25 peptide (1 μM) with or without the addition of 10-fold excess unlabeled NMU-25 peptide as the competitor. The plate was incubated in dark for 24 hours at 37° C. and then scanned on 8200 Cellular Detection System (Applied Biosystems) to quantify the amount of CyS fluorescence probe bound to the surface of each cell. (15) Immunocytochemistry for Internalized Receptors

[4] = target: T4, endogenous GHSR1b and NTSR1 on PC14 cells (Homo sapiens, UniProt P30989+Q92847); assay: as above; details: 10-fold excess unlabeled NMU-25
T4 construct: endogenous in cells; host or cells: PC14
T4 sequence (Q92847 1-289 isoform Q92847-2): as the sequence (Q92847 1-289 isoform Q92847-2, stated change not applied) above
T4 sequence (P30989 whole entry): as the sequence (P30989 whole entry A200T) above, with T200A counted along it
Protocol: as §1

LC319 cells [5] = assay: Measurement of cAMP levels (cAMP EIA); assay type: cell-based, human; details: for cAMP production: final concentrations of 3 to 100 μM
Protocol: (§2) Trypsinized LC319, REF-LC-AI, NCI-H358 and SK-MED-1 cells were seeded onto a 96-well microtiter plate (5.0×10^4 cells) and cultured in appropriate medium supplemented with 10% FCS for 24 hours, and then the medium was changed to serum free/1 mM IBMX (isobutylmethylxanthine) 20 min prior to the assay. Next, the cells were incubated with individual concentrations of peptides (NMU-25, GHRL, or NTS) for 20 min and cAMP levels of the cells were measured using cAMP EIA System (GE Healthcare Bio-sciences).

NCI-H358 cells = assay: Measurement of cAMP levels (cAMP EIA); assay type: cell-based, human; details: expressing either of the receptors, 3 to 50 μM
Protocol: as §2

RERF-LC-AI cells = assay: Measurement of cAMP levels (cAMP EIA); assay type: cell-based, human; details: both receptors at low levels, 3 to 50 μM
Protocol: as §2

SK-MES-1 cells = assay: Measurement of cAMP levels (cAMP EIA); assay type: cell-based, human; details: expressing either of the receptors, 3 to 50 μM
Protocol: as §2

NSCLC cells = assay: Competition of NMU-induced cAMP production; assay type: cell-based
NMU1R-expressing cells = target: T5, NMU1R-expressing cells (Homo sapiens, UniProt Q9HB89); details: cited from earlier work
T5 construct: host or cells: NMU1R-expressing cells
T5 sequence (Q9HB89 1-426): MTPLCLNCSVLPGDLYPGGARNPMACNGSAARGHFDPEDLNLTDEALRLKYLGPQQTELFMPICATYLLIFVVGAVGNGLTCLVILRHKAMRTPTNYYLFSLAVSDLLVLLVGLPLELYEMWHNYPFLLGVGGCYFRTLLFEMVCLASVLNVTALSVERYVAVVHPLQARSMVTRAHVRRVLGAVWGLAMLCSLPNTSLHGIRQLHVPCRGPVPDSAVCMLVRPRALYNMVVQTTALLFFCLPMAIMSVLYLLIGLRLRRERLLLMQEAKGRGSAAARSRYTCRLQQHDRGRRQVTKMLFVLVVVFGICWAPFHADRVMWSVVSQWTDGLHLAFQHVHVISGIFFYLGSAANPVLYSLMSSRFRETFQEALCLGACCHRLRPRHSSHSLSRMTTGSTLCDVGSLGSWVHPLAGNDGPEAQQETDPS

LC319 cells [6] = assay: Intracellular Ca^2+ mobilization assay (FLIPR); assay type: cell-based, human
Protocol: Trypsinized LC319 cells were seeded onto poly-D-lysine coated 384-well black-wall, clear-bottom microtiter plate (1.0×10^4 cells/ml) 24 hours prior to the assay. The cells were loaded for 1 hour with 4 μM Fluo-3-AM fluorescent indicator dye in assay buffer (Hank's balanced salt solution, 20 mM HEPES, 2.5 mM probenecid), washed three times with assay buffer, and then incubated for 10 min at room temperature before detection on fluorometric imaging plate reader (FLIPR; Molecular Devices). Fluorescence data of Ca^2+ release were collected in real-time at 1 sec intervals for the first 65 sec and at 3 sec intervals for additional 300 sec after individual concentrations of peptide (NMU-25, […], or NTS) treatment. Maximum change in fluorescence over baseline was measured to determine the response of the cells to the individual peptide stimulations.

Substance | subcellular distribution of GHSR1b and NTSR1 after stimulation (GHSR1b/NTSR1 [1]) | expression of FOXM1 (FOXM1) | cell growth (MTT assay) (COS-7 cells) | cell growth (colony-formation assay) (COS-7 cells) | subcellular distribution of GHSR1b and NTSR1 after stimulation (GHSR1b/NTSR1 [2]) | binding activity of Cy5-labeled NMU-25 with unlabeled competitor [3] | binding activity of Cy5-labeled NMU-25 with unlabeled competitor [4] | cAMP production (LC319 cells [5]) | intracellular cAMP production by NMU-25 (FIG. 3A) (LC319 cells [5]; high levels of both receptors, 3 to 50 μM) | intracellular cAMP production by NMU-25 (FIG. 3C) (NCI-H358 cells) | intracellular cAMP production by NMU-25 (FIG. 3B) (RERF-LC-AI cells) | intracellular cAMP production by NMU-25 (FIG. 3D) (SK-MES-1 cells) | NMU-induced cAMP production (NSCLC cells) | displacement of 125I-labeled rat NMU-binding (NMU1R-expressing cells) | intracellular Ca^2+ flux / mobilization (LC319 cells [6])
NMU-25: active form of a 25-amino-acid polypeptide of NMU (Sigma-Aldrich Co.) (FRVDEEFQSPFASQSRGYFLFRPRN) | co-internalized | enhanced expression of FOXM1 | enhanced cell growth in a dose-dependent manner | enhanced cell growth in a dose-dependent manner | induced co-internalization | inhibited | inhibited | Enhancement of cAMP production | marked and reproducible cAMP accumulation | did not show detectable cAMP production | not significant but low cAMP production | did not show detectable cAMP production | – | – | –
ghrelin (GSSFLSPEHQRVQQRKESKKPPAKLQPR) [GHRL, 28-amino-acid peptide, known ligand of GHSR] | – | – | – | – | – | – | – | did not enhance | – | – | – | – | competitively inhibited | did not displace | not the treatment with GHRL caused the mobilization response
